According to patent US4886813A, “Proline derivatives” (Otsuka Pharmaceutical Factory, Inc., priority 1985, dated 1989):

target: T1, angiotensin-converting enzyme (ACE) (Oryctolagus cuniculus, UniProt P12822); assay: Inhibitory activity against angiotensin-converting enzyme (ACE); type: biochemical; conditions: enzyme from rabbit lung acetone powder; substrate hippuryl-histidyl-leucine; 37° C.; preincubation 10 minutes, reaction 45 minutes
T1 construct: enzyme solution prepared from rabbit lung acetone powder; tissue Sigma Chemical Co., Ltd., U.S.A; host or cells: rabbit lung (acetone powder)
T1 sequence (P12822 34-1310): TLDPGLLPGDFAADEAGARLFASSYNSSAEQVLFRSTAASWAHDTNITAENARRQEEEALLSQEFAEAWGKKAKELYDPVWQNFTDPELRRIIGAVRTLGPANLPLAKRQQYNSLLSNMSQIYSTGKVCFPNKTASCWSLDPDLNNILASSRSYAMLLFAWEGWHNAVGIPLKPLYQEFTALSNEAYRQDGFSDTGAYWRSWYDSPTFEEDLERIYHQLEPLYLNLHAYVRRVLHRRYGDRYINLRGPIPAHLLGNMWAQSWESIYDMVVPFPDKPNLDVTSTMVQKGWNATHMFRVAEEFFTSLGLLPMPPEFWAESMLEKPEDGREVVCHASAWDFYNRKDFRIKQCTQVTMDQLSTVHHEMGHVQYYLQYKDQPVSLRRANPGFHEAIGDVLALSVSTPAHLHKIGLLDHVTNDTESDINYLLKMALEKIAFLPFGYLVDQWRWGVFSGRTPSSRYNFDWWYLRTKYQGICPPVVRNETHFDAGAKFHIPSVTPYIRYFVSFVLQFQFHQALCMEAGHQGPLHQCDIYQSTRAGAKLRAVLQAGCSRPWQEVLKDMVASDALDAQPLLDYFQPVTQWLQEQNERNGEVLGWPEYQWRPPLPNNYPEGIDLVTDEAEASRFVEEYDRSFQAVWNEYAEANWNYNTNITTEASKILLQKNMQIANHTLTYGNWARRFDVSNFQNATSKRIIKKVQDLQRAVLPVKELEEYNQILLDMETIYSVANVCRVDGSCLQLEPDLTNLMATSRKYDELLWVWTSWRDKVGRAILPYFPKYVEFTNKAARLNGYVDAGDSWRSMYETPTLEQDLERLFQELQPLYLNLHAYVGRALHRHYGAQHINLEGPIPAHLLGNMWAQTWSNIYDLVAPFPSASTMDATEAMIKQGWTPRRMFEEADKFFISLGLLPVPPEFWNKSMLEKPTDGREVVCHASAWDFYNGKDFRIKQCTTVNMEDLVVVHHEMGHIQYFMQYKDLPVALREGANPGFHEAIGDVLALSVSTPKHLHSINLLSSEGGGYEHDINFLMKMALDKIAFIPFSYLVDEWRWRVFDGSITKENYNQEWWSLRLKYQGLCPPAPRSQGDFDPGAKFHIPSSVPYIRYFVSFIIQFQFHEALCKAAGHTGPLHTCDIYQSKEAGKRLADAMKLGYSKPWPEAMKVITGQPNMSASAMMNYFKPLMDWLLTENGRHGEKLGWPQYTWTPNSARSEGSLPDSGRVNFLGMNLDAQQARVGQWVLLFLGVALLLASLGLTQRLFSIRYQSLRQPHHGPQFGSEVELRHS
Protocol: A 100 μl quantity of an enzyme solution prepared from rabbit lung acetone powder (product of Sigma Chemical Co., Ltd., U.S.A.) was mixed with 100 μl of a sample solution. The mixture was gently shaken at 37° C. for 10 minutes. To the reaction mixture was added 100 μl of a solution containing 6.69 mM of hippuryl-histidyl-lecuine (product of Peptide Institute, Inc., Japan) as a substrate. The mixture was reacted at 37° C. for 45 minutes while being shaken. The reaction was terminated by addition of 200 μl of a 1N sulfuric acid to the reaction mixture. Sodium chloride (saturation amount) and diethyl ether (2 ml) were added to the reaction mixture to extract the hippuric acid formed by the reaction. The resulting mixture was vigorously shaken for 15 minutes and centrifuged at 2000 r.p.m. for 5 minutes. A 1.5 ml quantity of the ether layer was separated. After the solvent was distilled off, the residue was redissolved in 1.5 ml of distilled water and the absorbance of 228 nm was measured. A control was prepared by repeating the same procedure as above except that […] of distilled water was used in place of the sample solution.
The inhibitory activity was calculated by deducting the absorbance value of the residue formed by addition of the sample solution from that of the control and the resulting value was divided by the absorbance value of the control and multipled by 100, thereby giving a percent inhibition. The inhibitory activity was expressed as IC50, i.e., the concentration of the same sample solution in the reaction mixture in which concentration 50% inhibition is achieved.

IC50 [µM] | Structure (SMILES)
0.0563 | CCCCCCCSC[C@H](NC(C)C(=O)N1CCC[C@H]1C(=O)NC(C)C(=O)O)C(=O)O (stereo partly drawn) [Compound 8]
0.0611 | CC(N[C@@H](CSCC(=O)NC1CCCC1)C(=O)O)C(=O)N1CCC[C@H]1C(=O)O (stereo partly drawn) [Compound 4]
0.0335 | CCCCCCCSC[C@H](NC(C)C(=O)N1CCC[C@H]1C(=O)NC(C(=O)O)C(C)C)C(=O)O (stereo partly drawn) [Compound 9]
0.342 | CC(N[C@@H](CSCC(=O)NCc1ccccc1)C(=O)O)C(=O)N1CCC[C@H]1C(=O)O (stereo partly drawn) [Compound 5]
0.0241 | CCCCCCCSC[C@H](NC(C)C(=O)N1CCC[C@H]1C(=O)NC(Cc1ccccc1)C(=O)O)C(=O)O (stereo partly drawn) [Compound 7]

More lines, now with the values behind:

Structure (SMILES) | IC50 [µM]
CC(N[C@@H](CSCC(=O)N1CCCCC1)C(=O)O)C(=O)N1CCC[C@H]1C(=O)O (stereo partly drawn) [Compound 6] | 0.443
CC(N[C@@H](CSC1(C)CCCCC1)C(=O)O)C(=O)N1CCC[C@H]1C(=O)O (stereo partly drawn) | 0.00521
CC(N[C@@H](CSC1CCCC1)C(=O)O)C(=O)N1CCC[C@H]1C(=O)O (stereo partly drawn) [Compound 3] | 0.00102
CC(N[C@@H](CSC1Cc2ccccc2C1)C(=O)O)C(=O)N1CCC[C@H]1C(=O)O (stereo partly drawn) [Compound 2] | 0.000687
